The values that follow come from patent publication US12240854B2, “TRAF 6 inhibitors” (Helmholtz Zentrum München - Deutsches Forschungszentrum für …, priority 2018, dated 2025).

Series [1] concerns NF-κB target genes ICAM-1 and A20 in MEF cells. Description: mRNA expression (qRT-PCR) in MEF cells. The format is cell-based, mouse. Here is the method: For MEF cells, 1.2×10^5 cells per sample were seeded, treated with compound for 6 hours and stimulated with either IL-1β or TNFα for 60 minutes. Jurkat T-cells and primary mouse CD4^+ T-cells were seeded at 2×10^5 cells per sample, also treated with compound for 6 hours and stimulated with PMA/lonomycin for 3 hours. RNA was isolated according to the manufacturer's protocol of the Qiagen RNeasy Kit (MEF cells) or the STRATEC INVITRAP® SPIN UNIVERSAL RNA MINI KIT (Jurkat T-cells). The isolation of mRNA from […] white adipose tissue from DIO mice was performed using TRIzol® Reagent according to manufacturer's instruction. To clear the isolated RNA from genomic DNA, samples (up to 5 μg RNA) were treated with RQ1 RNase-Free DNaseI (Promega) as described in the technical manual. For the reverse transcription of RNA into cDNA, the DNaseI digested RNA samples were processed using the SuperScript III First Strand cDNA Synthesis System (Invitrogen/ThermoFisher Scientific) following the manufacturer's protocol. […] For quantification of cDNA in the samples, the LightCylcer480 (Roche) and the KAPA SYBR FAST qPCR Kit were used. For relative quantification, the ΔΔCp method first described by Pfaffl (Pfaffl, M. W., A new mathematical model for relative quantification in real-time RT-PCR. Nucleic Acids Res, 2001. 29(9): p. e45) was applied.

For series [2], the system named is IL-2 and TNFα secretion of Jurkat T-cells. The series is described as follows: ELISA cytokine secretion, Jurkat T-cells. The format is cell-based, human. The procedure:
For measurement of cytokine secretion, 2×10^5 Jurkat T-cells or primary CD4^+ T-cells or human PBMCs per sample were seeded, treated with compound for 6 hours and stimulated as indicated. 20 hours after stimulation, supernatants were harvested and analyzed with the IL-2, IL-1β and TNFα Ready-Set-Go! ELISA (2nd Generation) kits provided by Affymatrix eBioscience.

A further series has as its target T1, RNF4 (Homo sapiens, UniProt P78317).
T1 construct: purchased Boston Biochem
Description: In vitro ubiquitination assay, RNF4 ubiquitin ligase kit. The format is biochemical. The procedure: For analysis of cIAP1, MDM2, TRIM63, RNF4, ITCH and E6AP mediated poly-ubiquitination, the respective ubiquitin ligase kit from Boston Biochem (K-102, K-260, K-200B, K-220, K-240 and K-270) was used. Here, reaction buffer, E1, E2 and E3 enzyme (and p53 substrate in case of MDM2) were mixed and pre-incubated with compound or DMSO for 5 minutes at room temperature before adding Mg^2+-ATP and mono-ubiquitin for reaction start. Ubiquitination was visualized by Western Blot analyses.

Series [3] can be described thus: ADME: plasma protein binding. It is filed as in vitro ADME. The procedure: (§1) All ADME (plasma stability, plasma protein binding, microsomal stability, Log D, Caco-2 assay, CYP450 inhibition and hERG predictor assay) as well as pharmacokinetic studies (Tmax, Cmax, AUC0-240min, Mean Residence Time, Elimination half life, Elimination rate constant, Volume of Distribution and Clearance) of C25-140 (compound 3) were conducted by Bienta Enamine Biology Services of Bienta/Enamine Ltd.

Another series relates to U2OS cells. Description: Cell cycle assessment (propidium iodide), U2OS cells. The format is cell-based. The following applies: 24 hours and 72 hours. The procedure: For cell cycle staining, cells were seeded at 2×10^5 cells per sample and treated with compound or DMSO. After the indicated incubation time (24 or 72 hours), cells were fixed in 100% Ethanol and subsequently stained with the Propidium Iodide staining solution (0.1% Triton X-100; 20 μg/ml Propidium Iodide; 200 μg/ml RNAse A in PBS) for 40 min in the dark. The Propidium Iodide fluorescence was collected using the Attune Flow Cytometer (Thermo Fisher Scientific). Analysis was performed using the Single Cell analysis software FlowJo.

A further series is described as follows: ADME: plasma stability. The format is in vitro ADME. The procedure: as §1
In the next series the test system is Jurkat T-cells. The series is described as follows: CellTiter-Glo viability assay, Jurkat T-cells. It is filed as cell-based, human. Particulars: 6 or 24 hours incubation. The procedure:
For cell viability experiments using the CellTiter-Glo® 2.0 system (Promega), MEF cells (1.2×10^3 cells/well), HepG2 cells (4×10^3 cells/well) and Jurkat T-cells (5×10^3 cells/well) were seeded in 384 well plates. After 18 hours, cells were treated with compounds using the Sciclone G3 automation system. After 6 or 24 hours incubation, the luciferase measurement was performed according to the manufacturer's manual.
On the technique in general: ATP-based viability assays read luminescence as a measure of living cells.

The subject of series [4] is NF-κB activation in Jurkat T-cells. The series is described as follows: EMSA for NF-κB activation in Jurkat T-cells. Particulars: PMA/Ionomycin. It is filed as cell-based, human. Here is the method: For compound treatment, MEF cells were seeded in 6 well plates at 1.2×10^5 cells/well the day before treatment. Jurkat T-cells were seeded directly before treatment at 2×10^5 cells/sample. Six hours after compound or DMSO treatment cells were stimulated as indicated. Thereby, MEF cells were left untreated or stimulated with recombinant mouse IL-1β (1 ng/mL) or TNFα (10 ng/mL) for 20 minutes. Jurkat T-cells were stimulated with Phorbol-12-myristat-13-acetet (PMA) (400 ng/mL) and lonomycin (600 ng/mL) for 30 minutes. Eventually, cells were lysed in high-salt lysis buffer (20 mM HEPES pH 7.9; 350 mM NaCl; 1 mM MgCl2; 0.5 mM EDTA; 0.1 mM EGTA; 20% Glycerol; 1% NP-40; 10 mM NaF; 8 mM β-Glycerophosphate; 1 mM DTT; 300 μM Sodium-vanadate; complete protease inhibitor) and analyzed in EMSA assays using H2K (NF-κB) or Oct-1 (loading control) probes.

SMILES strings stand for the structures. Entries after “also recorded” stand apart in the source; their conditions may differ.

T1 sequence (P78317 whole entry): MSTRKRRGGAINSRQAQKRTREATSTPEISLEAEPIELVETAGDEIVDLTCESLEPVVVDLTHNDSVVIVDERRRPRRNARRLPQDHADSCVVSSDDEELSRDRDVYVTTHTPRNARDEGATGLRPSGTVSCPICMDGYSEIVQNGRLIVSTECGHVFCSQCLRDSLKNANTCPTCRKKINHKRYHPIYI

As to `Cc1nn(-c2ccc3nnc(C)n3n2)c(C)c1CCC(=O)N1CCC(Cc2ccccc2)CC1` [Example C25-140, 1-(4-Benzylpiperidin-1-yl)-3-(3,5-dimethyl-1-(3-methyl-[1,2,4]-triazolo-[4,3-b]-pyridazin-6-yl)-1H-pyrazol-4-yl)-propan-1-one], the figures for the “mRNA expression of target genes (ICAM-1 and A20)” value in series [1] (IL-1β stimulation) and in series [1] (TNFα stimulation) were “diminished target gene expression; also recorded: impaired” and “also affects”, respectively. In addition, the “cytokine secretion of IL-2 and TNFα” value in series [2] is “reduced; also recorded: dose-dependently decreased”. Further, on RNF4, the RNF4 auto-ubiquitination entry is “not influenced; also recorded: not affected”. In series [3], the plasma protein binding result is “decent good plasma protein binding capacity”. Also, the cell cycle progression result with U2OS cells is reported as “no effects on cell cycle phases; also recorded: not impaired”. In “ADME: plasma stability”, the plasma stability result is on record as “stable”. In addition, the “metabolic activity and cell viability” value in the series on Jurkat T-cells is “did not considerably impact cell viability; also recorded: does not considerably affect metabolic activity and cell viability up to 50 μM; also recorded: at the highest dose of 100 μM toxicity is noticeable”. In addition, the NF-κB activation result in series [4] is on record as “reduced; also recorded: attenuated NF-κB activation”.
